Test results taken from the NIST ThermoML archive (doi:10.1021/je700445y).
Numbers after ± are expanded uncertainties.

Key:
[1] = Liquid; for mass density: 293.15 K, 101.33 kPa; for vapor or sublimation pressure: Ebulliometric method (Recirculating still)
[2] = refractive index (Na D-line) (dimensionless); settings: 293.15 K; 101.33 kPa; Liquid; Standard Abbe refractometry

vapor or sublimation pressure ([1]; 443.8 K) | Structure (SMILES) | mass density [1] | refractive index [2] | vapor or sublimation pressure ([1]; 398.96 K) | vapor or sublimation pressure ([1]; 341.8 K)
101.33 ± 0.52 kPa | C=CCCCCCCCC [1-decene] | 741 ± 1 kg/m3 | 1.4214 ± 0.00073 | – | –
– | CCCCCCCC [octane] | 708 ± 1 kg/m3 | 1.3965 ± 0.00075 | 101.33 ± 0.53 kPa | –
– | CCCCCC [hexane] | 660 ± 2 kg/m3 | 1.37486 ± 0.00075 | – | 101.33 ± 0.53 kPa
